This is an account of results in patent US20240109880A1 (Insilico Medicine IP Limited, priority 2021, published 2024).

Data set [1] can be described thus: Permeability in Caco-2 Assay. The class given is in vitro ADME. The conditions noted are these: human, pH 7.4, 2 hours; for efflux ratio at 2 h, 2 μM: Caco-2, 2.00 μM bi-directionally; for Papp A→B at 2 h, 2 μM: Caco-2, 2.00 μM, pH 7.40. How it is done: Permeability of test compounds was determined in Caco-2 Assay. Caco-2 cells purchased from ATCC were seeded onto […] (PET) in 96-well Corning Insert plates at 1×10^5 cells/cm2, and refreshed medium every 4-5 days until to the 21st to 28th day for confluent cell monolayer formation. The transport buffer in the study was HBSS with 10.0 mM HEPES at pH 7.40±0.05. Test compound was tested at 2.00 μM bi-directionally in duplicate. Digoxin was tested at 10.0 μM bi-directionally in duplicate, while nadolol and metoprolol were tested at 2.00 μM in A to B direction in duplicate. Final DMSO concentration was adjusted to less than 1%. The plate was incubated for 2 hours in CO2 incubator at 37±1° C., with 5% CO2 at saturated humidity without shaking. And all samples after mixed with acetonitrile containing internal standard were centrifuged at 3200×g for 10 min. For nadolol and metoprolol, 200 μL supernatant solution was diluted with 600 μL ultra-pure water for LC-MS/MS analysis. For digoxin and test compounds, 200 μL supernatant solution was diluted with 200 μL ultra-pure water for LC-MS/MS analysis. Concentrations of test and control compounds in starting solution, donor solution, and receiver solution were quantified by LC-MS/MS methodologies, using peak area ratio of analyte/internal standard. After transport assay, lucifer yellow rejection assay was applied to determine the Caco-2 cell monolayer integrity.

In the next data set the target is KAT6A (Homo sapiens (Human), UniProt Q92794). Description: KAT6A Biochemical Assay (radiometric 384-well, [3H]-Ac-CoA, biotinylated H4(1-30) peptide). The conditions noted are these: 5 nM KAT6A enzyme solution (2×), 60 min reaction at room temperature. The method, then: Inhibition of KAT6A enzymatic activity by test compounds was determined using a radiometric 384-well format assay. A 10-point serial dilution of the test compounds were conducted in DMSO and then a volume of 200 nL was transferred into 384-well assay plate by Echo (Labcyte). 10 μL of 2× enzyme solution (5 nM KAT6A (Active Motif) in assay buffer (50 mM Tris-HCl pH 8.0, 50 mM KCl, 0.1 mM EDTA, 5% glycerol, 1 mM DTT)) was dispensed into assay plate except for low control wells, in which 10 μL of assay buffer was transferred. The plate was incubated at room temperature for 15 min before addition of 10 μL of 2×[^3H]-acetyl coenzyme A (Ac-CoA) and substrate peptide mix solution (500 nM (KAT6A) [^3H]-Ac-CoA (PerkinElmer) and 800 nM (KAT6A) biotinylated H4(1-30) peptide (GL Biochem) in assay buffer) to each well to start reaction. The plate was incubated at room temperature for 60 min (KAT6A), and then the reaction was stopped by adding 10 μL of stop solution (cold Ac-CoA (Cayman) in 1× assay buffer). 25 μL of reaction in each well was transferred to Flashplate (PerkinElmer) and incubated for another 1 hour at room temperature. The plate was read on Microbeta and the inhibition percentage of each compound treated well was calculated based on the equation in h %=(Max−sample)/(Max−Min)*100 where Max is signal from high control wells with enzyme, and Min is signal from low control wells with assay buffer only. The in h % data were further fit in XL-Fit to obtain IC50 values using a 4-parameter logistic (4PL) sigmoidal curve model.
Chain of KAT6A (Q92794 whole entry): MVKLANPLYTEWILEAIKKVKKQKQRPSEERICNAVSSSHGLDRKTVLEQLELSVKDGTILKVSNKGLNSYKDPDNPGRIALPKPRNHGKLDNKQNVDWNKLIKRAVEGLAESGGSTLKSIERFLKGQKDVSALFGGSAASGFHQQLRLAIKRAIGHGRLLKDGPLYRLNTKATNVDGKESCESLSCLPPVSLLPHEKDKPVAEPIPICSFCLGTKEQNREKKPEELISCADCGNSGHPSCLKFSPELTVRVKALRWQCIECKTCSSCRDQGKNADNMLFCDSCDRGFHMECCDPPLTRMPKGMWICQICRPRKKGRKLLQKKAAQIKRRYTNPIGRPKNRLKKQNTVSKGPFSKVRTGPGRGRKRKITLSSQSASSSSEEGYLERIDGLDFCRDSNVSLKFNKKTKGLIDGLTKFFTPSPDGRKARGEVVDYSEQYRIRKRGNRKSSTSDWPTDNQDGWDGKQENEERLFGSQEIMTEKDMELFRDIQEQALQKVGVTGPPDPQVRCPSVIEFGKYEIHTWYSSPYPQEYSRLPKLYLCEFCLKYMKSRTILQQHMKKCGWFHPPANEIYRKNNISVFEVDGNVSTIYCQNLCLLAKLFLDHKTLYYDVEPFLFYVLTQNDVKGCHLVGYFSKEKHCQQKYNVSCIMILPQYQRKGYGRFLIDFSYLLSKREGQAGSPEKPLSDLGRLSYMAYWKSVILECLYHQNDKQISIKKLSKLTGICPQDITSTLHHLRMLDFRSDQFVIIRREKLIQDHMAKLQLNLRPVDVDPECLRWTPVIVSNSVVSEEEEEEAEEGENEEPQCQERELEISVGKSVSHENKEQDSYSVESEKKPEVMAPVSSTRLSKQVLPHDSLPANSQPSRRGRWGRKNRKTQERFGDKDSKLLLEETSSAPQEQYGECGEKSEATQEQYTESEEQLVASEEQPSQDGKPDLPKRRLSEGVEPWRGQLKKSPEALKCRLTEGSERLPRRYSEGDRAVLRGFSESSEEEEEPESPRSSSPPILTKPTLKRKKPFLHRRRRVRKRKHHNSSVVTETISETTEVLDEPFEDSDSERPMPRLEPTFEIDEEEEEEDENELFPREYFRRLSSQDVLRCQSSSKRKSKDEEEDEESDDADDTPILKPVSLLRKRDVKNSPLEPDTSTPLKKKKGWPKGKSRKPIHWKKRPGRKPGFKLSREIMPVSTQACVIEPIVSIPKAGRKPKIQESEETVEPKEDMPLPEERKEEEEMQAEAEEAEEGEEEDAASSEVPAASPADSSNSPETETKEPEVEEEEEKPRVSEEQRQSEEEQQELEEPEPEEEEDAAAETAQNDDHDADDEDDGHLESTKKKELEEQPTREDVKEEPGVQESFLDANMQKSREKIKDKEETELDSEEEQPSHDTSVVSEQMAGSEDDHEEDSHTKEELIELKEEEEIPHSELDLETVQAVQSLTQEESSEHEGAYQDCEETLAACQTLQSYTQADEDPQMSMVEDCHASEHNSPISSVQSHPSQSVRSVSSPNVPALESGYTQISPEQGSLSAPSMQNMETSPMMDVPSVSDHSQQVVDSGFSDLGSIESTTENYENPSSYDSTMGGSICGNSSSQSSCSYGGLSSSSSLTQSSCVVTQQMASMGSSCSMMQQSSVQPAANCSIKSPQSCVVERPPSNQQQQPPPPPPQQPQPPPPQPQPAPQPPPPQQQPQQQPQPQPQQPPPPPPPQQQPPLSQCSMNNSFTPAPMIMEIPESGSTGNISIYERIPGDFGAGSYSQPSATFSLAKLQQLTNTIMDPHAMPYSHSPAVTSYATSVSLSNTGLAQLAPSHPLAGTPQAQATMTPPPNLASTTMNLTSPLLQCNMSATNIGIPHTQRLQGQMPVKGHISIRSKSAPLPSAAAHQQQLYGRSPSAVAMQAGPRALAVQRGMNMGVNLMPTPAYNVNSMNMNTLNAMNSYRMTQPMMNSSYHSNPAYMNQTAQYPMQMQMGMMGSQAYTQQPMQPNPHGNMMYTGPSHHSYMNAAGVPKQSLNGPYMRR

In general, efflux ratio refers to a quotient of directional permeabilities that is used to spot active efflux. What is called Papp A→B is how fast a substance crosses the layer from the apical side. Lower therefore signals slow passage. As a reminder, the IC50 is the concentration at which inhibition is half-maximal. For the molecule `COc1cccc(OC)c1S(=O)(=O)Nc1noc2cc(Oc3ccccn3)cc(OC)c12` [Compound 9, 2,6-dimethoxy-N-(4-methoxy-6-(pyridin-2-yloxy)benzo[d]isoxazol-3-yl)benzenesulfonamide], in data set [1], the efflux ratio at 2 h, 2 μM stood at 3.66 and the Papp A→B at 2 h, 2 μM amounted to 118 nm/s. For the same molecule, on KAT6A, the IC50 lay in the range of 0.01 to 0.1 µM.

Consider `COc1cccc(OC)c1S(=O)(=O)Nc1noc2cc(Cn3cccn3)c3c(c12)OCCCC3` [Compound 19], for which, in data set [1], the efflux ratio at 2 h, 2 μM amounted to 13.2 and the Papp A→B at 2 h, 2 μM was 34.7 nm/s. The molecule also showed an IC50 against KAT6A below 0.01 µM.

`COc1cccc(OC)c1S(=O)(=O)Nc1noc2cc(Oc3ccccn3)cc(OC(F)F)c12` [Compound 22, N-(4-(difluoromethoxy)-6-(pyridin-2-yloxy)benzo[d]isoxazol-3-yl)-2,6-dimethoxybenzenesulfonamide]: in data set [1], the efflux ratio at 2 h, 2 μM is 6.87 and the Papp A→B at 2 h, 2 μM stood at 34.5 nm/s. The molecule further had an IC50 against KAT6A of 0.01 to 0.1 µM.

Take `COc1cccc(OC)c1S(=O)(=O)Nc1noc2cc(Oc3ccccn3)c3c(c12)OCC3` [Compound 23, 2,6-dimethoxy-N-(4-(pyridin-2-yloxy)-2,3-dihydrobenzofuro [7,6-d]isoxazol-8-yl)benzenesulfonamide]: in data set [1], the efflux ratio at 2 h, 2 μM is 14.2 and the Papp A→B at 2 h, 2 μM turned out to be 13 nm/s. The same molecule gave an IC50 against KAT6A below 0.01 µM.

As to `COc1ccnc(OC)c1S(=O)(=O)Nc1noc2cc(Oc3ccccn3)c3c(c12)OCCC3` [Compound 28, 2,4-dimethoxy-N-(5-(pyridin-2-yloxy)-3,4-dihydro-2H-chromeno[8,7-d]isoxazol-9-yl)pyridine-3-sulfonamide], in data set [1], the efflux ratio at 2 h, 2 μM stood at 9.58 and the Papp A→B at 2 h, 2 μM came out at 23.8 nm/s. This molecule also displayed a concentration for half-maximal inhibition (IC50) at KAT6A of 0.01 to 0.1 µM.

For the molecule `COc1ccnc(OC)c1S(=O)(=O)Nc1noc2cc(Cn3cccn3)c(F)c(OCF)c12` [Compound 42, N-(6-((1H-pyrazol-1-yl)methyl)-5-fluoro-4-(fluoromethoxy)benzo[d]isoxazol-3-yl)-2,4-dimethoxypyridine-3-sulfonamide], the IC50 on KAT6A was in the range of 0.01 to 0.1 µM.

On KAT6A, `COc1cc(C)nc(OC)c1S(=O)(=O)Nc1noc2cc(Cn3cccn3)c(F)c(OCF)c12` [Compound 43, N-(6-((1H-pyrazol-1-yl)methyl)-5-fluoro-4-(fluoromethoxy)benzo[d]isoxazol-3-yl)-2,4-dimethoxy-6-methylpyridine-3-sulfonamide] registered an IC50 of 0.01 to 0.1 µM.

In turn, `COc1cc(C)nc(OC)c1S(=O)(=O)Nc1noc2cc(Cn3cccn3)c(F)c(OC(F)F)c12` [Compound 44, N-(6-((1H-pyrazol-1-yl)methyl)-4-(difluoromethoxy)-5-fluorobenzo[d]isoxazol-3-yl)-2,4-dimethoxy-6-methylpyridine-3-sulfonamide] displayed a half-maximal inhibitory concentration (IC50) against KAT6A of 0.01 to 0.1 µM.

Molecule `COc1cccc(OC)c1S(=O)(=O)Nc1noc2cc(Cc3ccccn3)cc(OCF)c12` [Compound 45, N-(4-(fluoromethoxy)-6-(pyridin-2-ylmethyl)benzo[d]isoxazol-3-yl)-2,6-dimethoxybenzenesulfonamide] had an IC50 against KAT6A of 0.01 to 0.1 µM.

In the case of `COc1ccnc(OC)c1S(=O)(=O)Nc1noc2cc(Cn3cccn3)cc(OCF)c12` [Compound 48, N-(6-((1H-pyrazol-1-yl)methyl)-4-(fluoromethoxy)benzo[d]isoxazol-3-yl)-2,4-dimethoxypyridine-3-sulfonamide], at KAT6A, the IC50 is below 0.01 µM.

As to `COc1cc(C2CC2)nc(OC)c1S(=O)(=O)Nc1noc2cc(Cn3cccn3)cc(OCF)c12` [Compound 49, N-(6-((1H-pyrazol-1-yl)methyl)-4-(fluoromethoxy)benzo [d]isoxazol-3-yl)-6-cyclopropyl-2,4-dimethoxypyridine-3-sulfonamide], on KAT6A, the concentration for half-maximal inhibition (IC50) fell in the range of 0.01 to 0.1 µM.

`COc1cc(C(F)F)nc(OC)c1S(=O)(=O)Nc1noc2cc(Cn3cccn3)cc(OCF)c12` [Compound 50, N-(6-((1H-pyrazol-1-yl)methyl)-4-(fluoromethoxy)benzo[d]isoxazol-3-yl)-6-(difluoromethyl)-2,4-dimethoxypyridine-3-sulfonamide] displayed a concentration for half-maximal inhibition (IC50) against KAT6A of 0.01 to 1 µM.

On to `COc1cc(C(F)(F)F)nc(OC)c1S(=O)(=O)Nc1noc2cc(Cn3cccn3)cc(OCF)c12` [Compound 51, N-(6-((1H-pyrazol-1-yl)methyl)-4-(fluoromethoxy)benzo[d]isoxazol-3-yl)-2,4-dimethoxy-6-(trifluoromethyl)pyridine-3-sulfonamide], for which, on KAT6A, the IC50 is below 0.01 µM.

At KAT6A, `CCc1cc(OC)c(S(=O)(=O)Nc2noc3cc(Cn4cccn4)cc(OCF)c23)c(OC)n1` [Compound 52, N-(6-((1H-pyrazol-1-yl)methyl)-4-(fluoromethoxy)benzo[d]isoxazol-3-yl)-6-ethyl-2,4-dimethoxypyridine-3-sulfonamide] yielded an IC50 of 0.01 to 0.1 µM.

`CC#Cc1cc(OC)c(S(=O)(=O)Nc2noc3cc(Cn4cccn4)cc(OCF)c23)c(OC)n1` [Compound 53, N-(6-((1H-pyrazol-1-yl)methyl)-4-(fluoromethoxy)benzo[d]isoxazol-3-yl)-2,4-dimethoxy-6-(prop-1-yn-1-yl)pyridine-3-sulfonamide] returned an IC50 at KAT6A of 0.01 to 0.1 µM.

On to `C#Cc1cc(OC)c(S(=O)(=O)Nc2noc3cc(Cn4cccn4)cc(OCF)c23)c(OC)n1` [Compound 54, N-(6-((1H-pyrazol-1-yl)methyl)-4-(fluoromethoxy)benzo[d]isoxazol-3-yl)-6-ethynyl-2,4-dimethoxypyridine-3-sulfonamide], for which the IC50 against KAT6A was below 0.01 µM.

On to `COc1cc(C)nc(OC)c1S(=O)(=O)Nc1noc2cc(Oc3nccs3)cc(OCF)c12` [Compound 55, N-(4-(fluoromethoxy)-6-(thiazol-2-yloxy)benzo[d]isoxazol-3-yl)-2,4-dimethoxy-6-methylpyridine-3-sulfonamide], for which, in data set [1], the efflux ratio at 2 h, 2 μM was determined as 12.3 and the Papp A→B at 2 h, 2 μM came to 14.6 nm/s. The molecule further had a concentration for half-maximal inhibition (IC50) on KAT6A of 0.01 to 0.1 µM.

`COc1ccccc1S(=O)(=O)Nc1noc2cc(Oc3nccs3)cc(OCF)c12` [Compound 56, N-(4-(fluoromethoxy)-6-(thiazol-2-yloxy)benzo[d]isoxazol-3-yl)-2-methoxybenzenesulfonamide]: in data set [1], the efflux ratio at 2 h, 2 μM amounted to 2.84 and the Papp A→B at 2 h, 2 μM worked out at 52.8 nm/s. At KAT6A, the concentration for half-maximal inhibition (IC50) was below 0.01 µM.

`COc1cc(C)nc(OC)c1S(=O)(=O)Nc1noc2cc(Oc3nccs3)cc(OC)c12` [Compound 57, 2,4-dimethoxy-N-(4-methoxy-6-(thiazol-2-yloxy)benzo[d]isoxazol-3-yl)-6-methylpyridine-3-sulfonamide]: in data set [1], the Papp A→B at 2 h, 2 μM was determined as 33.8 nm/s. Besides, at KAT6A, the IC50 was below 0.01 µM.

Consider `COc1cccc(OC)c1S(=O)(=O)Nc1noc2cc(Oc3nccs3)cc(OCF)c12` [Compound 58], for which, in data set [1], the efflux ratio at 2 h, 2 μM amounted to 6.17 and the Papp A→B at 2 h, 2 μM came out at 51.4 nm/s. For the same molecule, the IC50 against KAT6A was below 0.01 µM.

Consider `COc1cccc(OC)c1S(=O)(=O)Nc1noc2cc(Oc3nccs3)cc(OC)c12` [Compound 59, 2,6-dimethoxy-N-(4-methoxy-6-(thiazol-2-yloxy)benzo[d]isoxazol-3-yl)benzenesulfonamide], for which, in data set [1], the efflux ratio at 2 h, 2 μM stood at 4.53 and the Papp A→B at 2 h, 2 μM amounted to 62 nm/s. On KAT6A, the concentration for half-maximal inhibition (IC50) is below 0.01 µM.

`COc1cccc(OC)c1S(=O)(=O)Nc1noc2cc(Cc3nccs3)cc(OCF)c12` [Compound 65, N-(4-(fluoromethoxy)-6-(thiazol-2-ylmethyl)benzo[d]isoxazol-3-yl)-2,6-dimethoxybenzenesulfonamide]: on KAT6A, the IC50 was below 0.01 µM.

`COc1cc(C)nc(OC)c1S(=O)(=O)Nc1noc2cc(Cn3cccn3)c3c(c12)OCC1CC31` (stereo not shown) [Compound 69, N-(7-((1H-pyrazol-1-yl)methyl)-5,5a,6,6a-tetrahydrocyclopropa[3,4]chromeno[8,7-d]isoxazol-3-yl)-2,4-dimethoxy-6-methylpyridine-3-sulfonamide] gave an IC50 at KAT6A below 0.01 µM.

In the case of `COc1cccc(OC)c1S(=O)(=O)Nc1noc2cc(Cn3cccn3)cc(OC)c12` [PF-9363, reference compound], the apical-to-basolateral permeability (Papp A→B) at 2 h, 2 μM in data set [1] turned out to be 6.28 nm/s.
